From patent US6949522B2, “β-2′- or 3′-halonucleosides” (Pharmasset, Inc., priority 2001, dated 2005)

What was measured:
[1] = in vitro; type: cell-based, African green monkey; settings: African green monkey, Cytotoxicity (IC50) Vero
[2] = system: HIV-1LAI; settings: human PBM cells; reported in Org. Lett. 2002; read-out: anti-HIV activity EC50; cited from earlier work
[3] = system: HBV; test: HBV Q-PCR in the HepG2.2.15 cell system; type: cell-based, hepatitis B virus; settings: 10 μM, HepG2.2.15 system

In the case of `Cc1cn([C@H]2C[C@H](N=[N+]=[N-])[C@@H](CO)O2)c(=O)[nH]c1=O` [AZT, 3′-azido-3′-deoxythymidine, reference compound], the IC50 at 3 days [1] is reported as 28 µM.
In the case of `Nc1ccn([C@H]2S[C@@H](CO)C=C2F)c(=O)n1` [Compound L-17, (+)-1-[(1S,4R)-2,3-dideoxy-2,3-didehydro-2-fluoro-4-thio-β-L-ribofuranosyl]-cytosine], the EC50 [2] is listed as 0.12 µM.
With `Nc1ccn([C@@H]2CS[C@H](CO)O2)c(=O)n1` [Compound 3TC, (−)-β-2′,3′-dideoxy-3′-thiacytidine, reference compound] the “maximal reduction of HBV DNA” value [3] was 0.6 logs.
